According to a melting point compilation (Tetko et al.):

Compound	melting point [°C]
Cc1nc(CC(N)=NO)no1	142 to 144
Cc1cc(NC(=O)c2ccc(F)cc2Cl)sc1C(=O)O	207 to 209
CS(=O)(=O)c1ccc(N)cc1Cl	193 to 195
Cc1nc(N)sc1Cl	100 to 102
NC(=O)c1c(N)sc2c1CCCCC2	195 to 199
O=C(O)c1cccc(S(=O)(=O)N2CCOCC2)c1	198 to 200
O=C(O)Cc1ccc(NC(=O)C2CC2)cc1	189 to 191
CCOc1cc(N)ccc1OC	77 to 79
COC(=O)c1ccc2c(c1)NCC(=O)N2	252 to 254
COc1cccc2c1OCC(C(=O)O)C2 (stereo not given)	174 to 176
CC(=O)Cn1cc(Br)cn1	62 to 64
CCCCc1nnc(N)o1	139 to 141
CNc1cnc(Cl)cc1C(=O)O	279 to 281
COC(=O)c1cc([N+](=O)[O-])cc(S(C)(=O)=O)c1	134 to 136
N#CCOc1ccc(/C=C/C(=O)O)cc1	214 to 216
CC(C)Nc1ccccn1	41 to 43
Cc1ccc(NC(=O)C2CCCNC2)nc1 (stereo not given)	144 to 146
CCOCCS(=O)(=O)NCC(=O)O	63 to 65
N#CC1=C(C(=O)O)CCC1	108 to 110
O=C(O)c1cc([N+](=O)[O-])c(F)c([N+](=O)[O-])c1	237 to 239
COc1cc(C)nc(Cl)n1	35 to 37
N#Cc1ccc(I)c(C(F)(F)F)c1	100 to 102
C=CC(=O)Nc1ccc(C(=O)O)cc1	246 to 248
Cc1nc(Cl)nc(Cl)c1[N+](=O)[O-]	52 to 54
CC(Cl)c1nnc(-c2ccc(Cl)c(Cl)c2)o1 (stereo not given)	93 to 95
Cc1ccc(OCc2ccc(C(=O)O)o2)cc1	204 to 206
C/C(=N\OCC(=O)O)c1ccc2c(c1)OCO2	136 to 138

Compound	melting point [°C]
O=Cc1c(F)cccc1N1CCCC1	41 to 43
Nc1cc(Br)c(S(N)(=O)=O)cc1[N+](=O)[O-]	268 to 270
Cc1ccc(N)cc1S(=O)(=O)NC1CC1	131 to 133
NC(=O)c1ccc(CNc2cccc(F)c2)cc1	155 to 157
O=C(O)CCc1ccc2c(c1)CCO2	92 to 94
CC(C)N1C2CCCC1CC(O)C2 (stereo not given)	59 to 61
O=C(O)c1cccc(NC(=O)c2ccco2)c1	224 to 226
O=c1cnc2ccccc2n1CCS(=O)(=O)F	145 to 147
O=C(O)CCCCCc1ccc(O)cc1	104 to 106
Cc1ccc(Oc2ccc(O)cc2)cc1	71 to 73
O=C(O)CCOc1ccc([N+](=O)[O-])cc1	116 to 118
CCOc1ccc(S(=O)(=O)NCCC(=O)O)cc1	178 to 180
COC(=O)COc1ccc(N)cc1Cl	66 to 68
CCN(CC)S(=O)(=O)c1cc(C(=O)O)ccc1Cl	118 to 120
O=C(CBr)c1sccc1Br	60 to 62
CC1CCN(CC(=O)O)CC1	147 to 149
Cc1ccc(S(=O)(=O)Cl)cc1S(=O)(=O)N1CCCCC1	111 to 113
O=[N+]([O-])c1cc(F)ccc1S(=O)(=O)Cl	40 to 44
COC(=O)c1cc(CCl)c(C)s1	54 to 56
O=C(O)CSC1CCS(=O)(=O)C1 (stereo not given)	< 17
O=C(O)C1CCCN1C(=O)c1ccc([N+](=O)[O-])s1 (stereo not given)	161 to 163
CCNS(=O)(=O)c1ccc(Cl)nc1	73 to 75
CC(Oc1ccc(Cl)cc1Br)C(=O)O (stereo not given)	122 to 124
N#Cc1ccnc(Cl)c1[N+](=O)[O-]	74 to 76
O=C(O)c1ccc(-c2noc(C(F)(F)F)n2)cc1	249 to 251
COC(=O)COc1c(C)cc(C(=O)O)cc1C	173 to 175
Cc1ccc(C(=O)CBr)cc1[N+](=O)[O-]	45 to 47

Other lines, results leading:

melting point [°C]	Compound
172 to 174	O=C(O)c1cccn1Cc1ccccn1
138 to 140	Cn1ccnc1C(=O)c1ccncc1
82 to 84	O=C(O)CC(Cc1ccccc1)Cc1ccccc1
170 to 172	O=C(O)c1cnn(-c2ccccc2Cl)c1
154 to 156	CN(C)S(=O)(=O)c1ccccc1C(N)=S
188 to 190	Cc1ccc(-c2nnn(CC(=O)O)n2)cc1
222 to 224	Oc1nnc(-c2ccccc2)c(-c2ccccc2)n1
140 to 142	BrCc1cc(Br)cc2cccnc12
347 to 349	O=C(O)c1cc(-c2ccccc2)nc2nc(N3CCCCC3)sc12
109 to 111	COc1ccccc1SCC(=O)NN
117 to 119	COc1cc(/C(C)=N\O)ccc1OCc1ccccc1
58 to 60	Cc1cc(N)nn1-c1cccc(Cl)c1
202 to 204	O=C(O)c1cn(-c2ccccc2)nc1-c1ccccc1
101 to 103	CCC1Cc2c(Br)cccc2C(=O)N1 (stereo not given)
153 to 155	Nc1cc(-c2ccccc2)nc(N)n1
271 to 273	COc1ccc(-c2nc(N)cc(=O)[nH]2)cc1
96 to 98	Cc1c(N)cc(C(=O)NC(C)c2ccccc2)cc1F (stereo not given)
122 to 124	Cc1sc(N)nc1-c1ccc(F)cc1
175 to 177	O=C(O)c1ccc(Oc2ccc(Br)cc2)nc1
118 to 120	c1ccc(CN(Cc2ccccc2)Cn2nnc3ccccc32)cc1
183 to 185	NS(=O)(=O)c1cccc2cccnc12
54 to 56	OC1(CNCc2ccccc2)CCc2ccccc21 (stereo not given)
206 to 208	CN(Cc1ccccc1)c1nc2ccccc2[nH]1

melting point [°C]	Compound
145 to 147	Cc1nc(-c2ccccn2)nc(O)c1C
259 to 261	O=c1[nH]c(CCl)nc2c1cnn2-c1ccccc1
75 to 77	COc1ccc(C=NO)cc1OCc1ccccc1
129 to 131	Nc1[nH]ncc1-c1ccccc1Br
122 to 124	NS(=O)(=O)CCc1ccccc1
212 to 214	O=C(O)c1csc(-c2ccc(Cl)c(Cl)c2)n1
104 to 106	O=S(=O)(Cl)c1ccc(-n2cccn2)c(F)c1
121 to 123	O=C(NC1CCc2ccccc21)c1ccnc(F)c1 (stereo not given)
179 to 181	Sc1nnc(-c2cccnc2)n1Cc1ccccc1
173 to 175	CC(C)(C(=O)O)c1ccc(-c2ccccc2)cc1
157 to 159	Cc1ccc(C)c(-n2nnnc2SCC(=O)O)c1
209 to 211	O=C(O)c1ccc(NS(=O)(=O)c2ccccc2)cc1
42 to 44	Cc1nc(Cl)nc(C)c1Cc1ccccc1
144 to 146	Cc1ccc(S(=O)(=O)Cl)c(C)c1OCC(=O)O
180 to 182	COc1ccc2c(-c3ccccc3)cc(S)nc2c1
97 to 99	Nc1ncc(Cc2ccccc2F)s1
103 to 105	Nc1ccc(CSc2ccccn2)cc1
165 to 167	CCc1cccc(CC)c1Nc1nnc(S)s1
104 to 108	CCOc1ccccc1N1CC(C(=O)O)CC1=O (stereo not given)
190 to 192	COc1ccc(N)cc1OCc1cn2ccccc2n1
155 to 157	N#Cc1c(NC(=O)CCl)oc(-c2ccccc2)c1-c1ccccc1
94 to 96	CCc1c(-c2ccc(Br)cc2)n[nH]c1N
179 to 181	O=Cc1ccc2cn[nH]c2c1
